Experimental data from patent US9695155B2, “Herbicidal substituted pyrimidinyloxy benzene compounds” (E. I. DU PONT DE NEMOURS AND COMPANY, priority 2013, dated 2017).

Tests used:
Italian ryegrass = experiment: Test E postemergence; format: in vivo, Lolium multiflorum
Description: (§1) Seeds of plant species selected from corn (Zea mays), soybean (Glycine max), velvetleaf (Abutilon theophrasti), lambsquarters (Chenopodium album), wild poinsettia (Euphorbia heterophylla), palmer pigweed (Amaranthus palmeri), waterhemp (common waterhemp, Amaranthus rudis), surinam grass (Brachiaria decumbens), large (Lg) crabgrass (Digitaria sanguinalis), Brazilian crabgrass (Digitaria horizontalis), fall panicum (Panicum dichotomiflorum), giant foxtail (Setaria faberii), green foxtail (Setaria viridis), goosegrass (Eleusine indica), johnsongrass (Sorghum halepense), ragweed (common ragweed, Ambrosia elatior), barnyardgrass (Echinochloa crus-galli), sandbur (southern sandbur, Cenchrus echinatus), arrowleaf sida (Sida rhombifolia), Italian ryegrass (Lolium multiflorum), dayflower (Virginia (VA) dayflower, Commelina virginica), field bindweed (Convolvulus arvensis), morningglory (Ipomoea coccinea), nightshade (eastern black nightshade, Solanum ptycanthum), kochia (Kochia scoparia), yellow nutsedge (Cyperus esculentus), cocklebur (common cocklebur, Xanthium strumarium), smartweed (ladysthumb smartweed, and hairy beggarticks (Bidens pilosa), were planted into a silt loam soil and treated preemergence with test chemicals formulated in a non-phytotoxic solvent mixture which included a surfactant.
(§2) At the same time, plants from these crop and weed species and also horseweed (Canada horseweed, Conyza canadensis), waterhemp_RES1, (ALS & Triazine resistant common waterhemp, Amaranthus rudis), and waterhemp_RES2, (ALS & HPPD resistant common waterhemp, Amaranthus rudis) were planted in pots containing Redi-Earth® planting medium (Scotts Company, 14111 Scottslawn Road, Marysville, Ohio 43041) comprising spaghnum peat moss, vermiculite, wetting agent and starter nutrients were treated with postemergence applications of test chemicals formulated in the same manner. Plants ranged in height from 2 to 18 cm for postemergence treatments (1- to 4-leaf stage). Treated plants and controls were maintained in a greenhouse for 14 to 21 days, after which time all species were compared to controls and visually evaluated. Plant response ratings, summarized in Table E, are based on a scale of 0 to 100 where 0 is no effect and 100 is complete control. A dash (-) response means no test result.

hairy beggarticks = experiment: Test E postemergence; format: in vivo, Bidens pilosa
Description: as §1, §2

cocklebur = experiment: Test E preemergence; format: in vivo, Xanthium strumarium; details: for Cocklebur plant response rating: scale 0 to 100 (0 no effect, 100 complete control); for Plant response rating, Cocklebur: scale 0 to 100, 0 no effect, 100 complete control
Description: as §1, §2

wild oat = experiment: Test D preemergence; format: in vivo, Avena fatua
In short: (§3)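 Plant response is a visual score from 0 (no effect) to 100 (complete control) relative to controls. Plants were kept in a controlled growth environment for 7 to 21 days after spraying. Preemergence treatments went onto silt loam soil; postemergence ones onto 1- to 4-leaf seedlings.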

galium = experiment: Test D postemergence; format: in vivo, Galium aparine
In short: as §3

wild buckwheat = experiment: Test D preemergence; format: in vivo, Polygonum convolvulus
In short: as §3

spring barley = experiment: Test D postemergence; format: in vivo, Hordeum vulgare; details: Postemergence, scale 0 to 100 (0 no effect, 100 complete control)
In short: as §3

winter barley [1] = experiment: Test D postemergence; format: in vivo, Hordeum vulgare; details: Postemergence, scale 0 to 100 (0 no effect, 100 complete control)
In short: as §3

winter barley [2] = experiment: Test D preemergence; format: in vivo, Hordeum vulgare
In short: as §3

field violet = experiment: Test D preemergence; format: in vivo, Viola arvensis
In short: as §3

deadnettle = experiment: Test D preemergence; format: in vivo, Lamium amplexicaule
In short: as §3

winter wheat = experiment: Test D preemergence; format: in vivo, Triticum aestivum
In short: as §3

spring wheat = experiment: Test D preemergence; format: in vivo, Triticum aestivum
In short: as §3

[3] = Postemergence, 31 g ai/ha, scale 0 to 100
[4] = Postemergence, 62 g ai/ha, scale 0 to 100
[5] = Postemergence, 125 g ai/ha, scale 0 to 100
[6] = postemergence, 8 g ai/ha, scale 0 to 100, 0 no effect, 100 complete control
[7] = postemergence, 16 g ai/ha, scale 0 to 100, 0 no effect, 100 complete control
[8] = 31 g ai/ha, scale 0 (no effect) to 100 (complete control)

Fc1cnc(Oc2ccccc2-n2cc(Br)cn2)nc1 [Compound 10, 2-[2-(4-bromo-1H-pyrazol-1-yl)phenoxy]-5-fluoropyrimidine]
pest or weed control at 31 g/ha (Italian ryegrass; Lolium multiflorum, post-emergence, Postemergence, 31 g ai/ha, scale 0 to 100, read-out: Plant response rating, Ryegrass, Italian): 0%
pest or weed control at 62 g/ha (Italian ryegrass; Lolium multiflorum, post-emergence, Postemergence, 62 g ai/ha, scale 0 to 100, read-out: Plant response rating, Ryegrass, Italian): 0%
pest or weed control at 125 g/ha (Italian ryegrass; Lolium multiflorum, post-emergence, Postemergence, 125 g ai/ha, scale 0 to 100, read-out: Plant response rating, Ryegrass, Italian): 0%
pest or weed control at 250 g/ha (Italian ryegrass; Lolium multiflorum, post-emergence, Postemergence, 250 g ai/ha, scale 0 to 100, read-out: Plant response rating, Ryegrass, Italian): 0%
pest or weed control at 16 g/ha (Italian ryegrass; Lolium multiflorum, post-emergence, postemergence, 16 g ai/ha, scale 0 to 100, 0 no effect, 100 complete control, read-out: Plant response rating, Ryegrass, Italian): 0%
pest or weed control at 31 g/ha (hairy beggarticks; Bidens pilosa, post-emergence, Postemergence, 31 g ai/ha, scale 0 to 100, read-out: Plant response rating, Beggarticks): 30%
pest or weed control at 62 g/ha (hairy beggarticks; Bidens pilosa, post-emergence, Postemergence, 62 g ai/ha, scale 0 to 100, read-out: Plant response rating, Beggarticks): 40%
pest or weed control at 125 g/ha (hairy beggarticks; Bidens pilosa, post-emergence, Postemergence, 125 g ai/ha, scale 0 to 100, read-out: Plant response rating, Beggarticks): 50%
pest or weed control at 250 g/ha (hairy beggarticks; Bidens pilosa, post-emergence, Postemergence, 250 g ai/ha, scale 0 to 100, read-out: Plant response rating, Beggarticks): 80%
pest or weed control at 16 g/ha (hairy beggarticks; Bidens pilosa, post-emergence, postemergence, 16 g ai/ha, scale 0 to 100, 0 no effect, 100 complete control, read-out: Plant response rating, Beggarticks): 10%

Clc1cnc(Oc2cccc(Br)c2-n2cc(Br)cn2)nc1 [Compound 65]
Plant response rating, Ryegrass, Italian (Italian ryegrass; [3]): 0
Plant response rating, Ryegrass, Italian (Italian ryegrass; [4]): 0
Plant response rating, Ryegrass, Italian (Italian ryegrass; [5]): 0
Plant response rating, Ryegrass, Italian (Italian ryegrass; [6]): 0
Plant response rating, Ryegrass, Italian (Italian ryegrass; [7]): 0
Plant response rating, Beggarticks (hairy beggarticks; [3]): 40
Plant response rating, Beggarticks (hairy beggarticks; [4]): 50
Plant response rating, Beggarticks (hairy beggarticks; [5]): 50
Plant response rating, Beggarticks (hairy beggarticks; [6]): 20
Plant response rating, Beggarticks (hairy beggarticks; [7]): 35

N#Cc1cccc(Oc2ncc(F)cn2)c1-n1cc(Cl)cn1 [Compound 73]
Cocklebur plant response rating (cocklebur; 16 g ai/ha): 0
Cocklebur plant response rating (cocklebur; 31 g ai/ha): 0
Plant response rating, Cocklebur (cocklebur; 250 g ai/ha): 25

FC(F)(F)c1cnn(-c2c(Cl)cccc2Oc2ncc(Cl)cn2)c1 [Compound 167]
Cocklebur plant response rating (cocklebur; 16 g ai/ha): 0
Cocklebur plant response rating (cocklebur; 31 g ai/ha): 0
Cocklebur plant response rating (cocklebur; 62 g ai/ha): 100
Plant response rating, Cocklebur (cocklebur; 125 g ai/ha): 90

N#Cc1cccc(Oc2ncc(Cl)cn2)c1-n1cc(-n2ccc(C(F)(F)F)n2)cn1 [Compound 284]
Plant response rating, Oat, Wild (wild oat; [8]): 0
Plant response rating, Oat, Wild (wild oat; 62 g ai/ha, scale 0-100): 0
Plant response rating, Oat, Wild (wild oat; 125 g ai/ha, scale 0-100): 20
Plant response rating, Oat, Wild (wild oat; 250 g ai/ha, scale 0-100): 50
Plant response rating, Galium (galium; 31 g ai/ha, scale 0-100): 70
Plant response rating, Galium (galium; 62 g ai/ha, scale 0 to 100 (0 no effect, 100 complete control)): 85
Plant response rating, Galium (galium; 125 g ai/ha, scale 0 to 100 (0 no effect, 100 complete control)): 85
Plant response rating, Galium (galium; 250 g ai/ha, scale 0 to 100 (0 no effect, 100 complete control)): 95
Plant response rating, Buckwheat, Wild (wild buckwheat; [8]): 10
Plant response rating, Buckwheat, Wild (wild buckwheat; 62 g ai/ha, scale 0-100): 20
Plant response rating, Buckwheat, Wild (wild buckwheat; 125 g ai/ha, scale 0-100): 70
Plant response rating, Buckwheat, Wild (wild buckwheat; 250 g ai/ha, scale 0-100): 100
Plant response rating, Barley, Spring (spring barley; 62 g ai/ha): 15
Plant response rating, Barley, Spring (spring barley; 31 g ai/ha): 5
Plant response rating, Barley, Spring (spring barley; 125 g ai/ha): 20
Plant response rating, Barley, Spring (spring barley; 250 g ai/ha): 25
Plant response rating, Barley, Winter (winter barley [1]; 62 g ai/ha): 15
Plant response rating, Barley, Winter (winter barley [1]; 31 g ai/ha): 15
Plant response rating, Barley, Winter (winter barley [1]; 125 g ai/ha): 20
Plant response rating, Barley, Winter (winter barley [1]; 250 g ai/ha): 25
Plant response rating, Barley, Winter (winter barley [2]; [8]): 0
Plant response rating, Barley, Winter (winter barley [2]; 62 g ai/ha, scale 0-100): 0
Plant response rating, Barley, Winter (winter barley [2]; 125 g ai/ha, scale 0-100): 15
Plant response rating, Barley, Winter (winter barley [2]; 250 g ai/ha, scale 0-100): 20
Plant response rating, Field Violet (field violet; [8]): 45
Plant response rating, Field Violet (field violet; 62 g ai/ha, scale 0-100): 100
Plant response rating, Field Violet (field violet; 125 g ai/ha, scale 0-100): 100
Plant response rating, Field Violet (field violet; 250 g ai/ha, scale 0-100): 100
Plant response rating, Deadnettle (deadnettle; [8]): 35
Plant response rating, Deadnettle (deadnettle; 62 g ai/ha, scale 0-100): 45
Plant response rating, Deadnettle (deadnettle; 125 g ai/ha, scale 0-100): 75
Plant response rating, Deadnettle (deadnettle; 250 g ai/ha, scale 0-100): 100
Plant response rating, Wheat, Winter (winter wheat; [8]): 15
Plant response rating, Wheat, Winter (winter wheat; 125 g ai/ha, scale 0-100): 20
Plant response rating, Wheat, Winter (winter wheat; 250 g ai/ha, scale 0-100): 25
Plant response rating, Wheat, Spring (spring wheat; [8]): 10
Plant response rating, Wheat, Spring (spring wheat; 125 g ai/ha, scale 0-100): 20
Plant response rating, Wheat, Spring (spring wheat; 250 g ai/ha, scale 0-100): 30
